Laboratory results published in US20250057853A1 (priority 2023, published 2025).

Settings: Cohort 5: 4.0 g/kg via 15-minutes IV infusion

With `Br.CN1[C@@H]2C[C@@H](OC(=O)[C@H](CO)c3ccccc3)C[C@H]1[C@@H]1O[C@@H]12.O.O.O` [scopolamine HBr, scopolamine hydrobromide trihydrate] the “Number of TEAEs” value was 25 AEs.
